Measured values published in patent US12544348B2, “Methods for treating APOE4/4-associated disorders” (The Regents of the University of California, priority 2018, dated 2026).

System: hippocampal slices from apoE4-KI mice
Test: Brain slice electrophysiological recordings (LTP, input-output) after in vivo treatment
Conditions: 0.2 mg/kg for 8 weeks
Excerpt: Brain slice electrophysiological recordings and data analyses. For long-term potentiation (LTP) recording study, apoE4-KI mice were randomly allocated to vehicle (n=6, age 15.2±0.56 months) and bumetanide (n=3, age 15.1±0.06) treatment groups. ApoE3-KI mice were similarly allocated into vehicle (n=6, age 15.5±0.11) and bumetanide (n-3, age 15.57±0.19) treatment groups. For input/output recording study, apoE4-KI mice were randomly allocated to vehicle (n=3, age 15.1±0.06 months) and bumetanide (n=3, age 15.1±0.06) treatment groups. ApoE3-KI mice were similarly allocated into vehicle (n=7, age 15.3±0.06) and bumetanide (n=3, age 15.57±0.29) treatment groups. […]
Field post-synaptic potentials (fPSPs) were elicited by orthodromic stimulation of Schaffer collaterals by concentric bipolar stimulating electrode (FHC, Inc., USA) connected to a constant voltage isolated stimulator (DS2A-MKII, Digitimer North America) and placed in CA2 stratum radiatum. fPSPs were recorded with a glass borosilicate microelectrode filled with ACSF and placed in CA1 stratum radiatum. Signals were sampled and digitized by MultiClamp 700B amplifier and Digidata 1550B1 acquisition system with pClamp10 software (Molecular Devices, USA), and analyzed using IgorPro6 software (Wavemetrics Inc., USA) running custom macros. fPSP slopes were analyzed as the linear fit slope values between 10% and 90% of fPSP peak. […]

**Q.** Which “long-term potentiation (LTP) in CA1 region of hippocampal slices” value (aged (16-month-old) apoE4-KI mice, theta burst stimulation) does the source give for `CCCCNc1cc(C(=O)O)cc(S(N)(=O)=O)c1Oc1ccccc1` [bumetanide, 3-(butylamino)-4-phenoxy-5-sulfamoylbenzoic acid] here?
**A.** completely rescued LTP deficit

**Q.** And the “neuronal hyperexcitability in CA1 region (input-output curve analysis)” value (aged apoE4-KI mice)?
**A.** normalized
